Results: US20160355483A1, “COMPOUND BINDING TO PPARG BUT NOT ACTING AS PROMOTER AND PHARMACEUTICAL COMPOSITION FOR TREATING PPARG-RELATED DISEASES CONTAINING SAME AS ACTIVE INGREDIENT” (Hyundai Pharm Co., Ltd., priority 2014, published 2016)
pIC50: −log10 of the molar value. “Also recorded” adds a separate entry of the source. One block for each molecule: values may come before it.

How the values were obtained:
[1] = target: T1, PPARG (peroxisome proliferator activated receptor-gamma), GST-PPARG-LBD (Homo sapiens, UniProt P37231); assay: LanthaScreen TR-FRET PPARG Competitive Binding Assay; set-up: key: “+” indicates the degree of the binding activity, and as the number of “+” increases, the binding activity is stronger; ++: “+” indicates the degree of the binding activity, and as the number of “+” increases, the binding activity is stronger; +++: “+” indicates the degree of the binding activity, and as the number of “+” increases, the binding activity is stronger; ++++: “+” indicates the degree of the binding activity, and as the number of “+” increases, the binding activity is stronger; conditions: degree of binding activity
T1 construct: 15 μL of 5 nM GST-PPARG-LBD and 5 nM Tb-GST-antibody were added; purchased Invitrogen PV4894
T1 sequence (P37231 238-503 limits assumed): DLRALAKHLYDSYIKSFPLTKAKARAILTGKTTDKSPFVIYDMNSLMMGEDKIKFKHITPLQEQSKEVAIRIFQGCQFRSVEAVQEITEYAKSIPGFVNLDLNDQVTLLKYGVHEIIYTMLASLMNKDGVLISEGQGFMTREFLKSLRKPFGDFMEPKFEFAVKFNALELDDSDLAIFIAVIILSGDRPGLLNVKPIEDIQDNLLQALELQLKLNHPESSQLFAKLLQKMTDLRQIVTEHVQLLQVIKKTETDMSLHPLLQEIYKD
In short: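 Ratio of 518 nm to 488 nm time-resolved emission after a 1 h room-temperature incubation, in competition format with GST-PPARG ligand-binding domain. Values are expressed as 100% minus compound-to-vehicle ratio and related to rosiglitazone binding.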

[2] = target: T2, HERG (Human Ether-a-go-go-Related Gene) channel (Homo sapiens, UniProt Q12809); assay: Evaluation of cardiotoxicity, patch-clamp on HEK293 cells expressing HERG channel; format: cell-based; conditions: HERG peak tail current
T2 construct: expressed in transfected cells; host or cells: HEK293
Protocol: HEK293 cells expressing HERG (Human Ether-a-go-go-Related Gene) channel safely were cultured in MEM (Minimum Essential Medium) supplemented with 10% fetal bovine serum (FBS), 1 mM sodium pyruvate, 0.1 mM non-essential amino acid solution, 100 units/ml penicillin-streptomycin, 100 μg/ml streptomycin sulfate and 100 μg/ml zeocin under the condition of air:CO2=95:5. When the cells were grown to 60-80% confluency, the cells were loaded in the medium supplemented with 0.25% trypsin and 0.02% EDTA (ethylenediaminetertraacetic acid) for 3 minutes. The cells were then washed with a fresh medium and then dispensed on a new plastic culture dish. For the electrophysiological record, the cells were seeded on a glass cover slip of 5 mm in diameter, followed by incubation in a 24-well plate for 5-24 hours. Then, the cells were transferred into the recording chamber.
The current value of all the cells was measured by the conventional patch-clamp technique or Port-a-Patch (Nanion, Germany) semiautomatic technique. The pH of the external bath solution containing 136 mM NaCl, 5.4 mM KCl, 1.8 mM CaCl2, 1 mM MgCl2, 10 mM glucose, and 10 mM HEPES (4-(2-hydroxyethyl)-1-piperazineethanesulfonic acid) was adjusted to 7.4 using NaOH. The pH of the intracellular pipette solution containing 130 mM KCl, 1 mM MgCl2, 10 mM EGTA (ethylene glycol tetraacetic acid), 5 mM Mg-ATP, and mM HEPES was adjusted to 7.2 using KOH.
In the conventional patch-clamp technique, the patch pipette was pulled by a PP-83 pipette puller (Narishige, Tokyo, Japan), so that it had 2-4 MΩ of resistance in the external bath solution. The ionic current was recorded by using EPC7 pulse amplifier (HEKA electronic, Germany). The voltage-clamp amplification was regulated using the pClamp computer program (Axon Instruments, USA), and the obtained data were analyzed. During the recording, the solution above was continually spread on HEK293 cells in the chamber. For the recording, the Port-a-Patch (Nanion, Germany) semiautomatic patch system was used, and the amplifier used herein was EPC10.
The membrane potential was maintained at −80 mV, which was changed to +20 mV for 4 seconds, then changed to −50 mV for 6 seconds and then maintained again at −80 mV. The changes were made every 25 seconds.
To obtain the concentration-reaction curve in the presence of the drug, dose-dependent inhibition was entered into the Hill formula represented by mathematical formula 1 below.
In mathematical formula 1, Idrug indicates the peak tail current in the presence of a drug, Icontrol indicates the maximum peak tail current in the absence of a drug, D indicates the concentration of a drug, h indicates Hill constant, and IC50 indicates the concentration when the half-maximum peak tail current was suppressed.

[3] = test system: bone cells; conditions: cell culture test; cited from earlier work
[4] = target: T3, CYP 2C19 (Homo sapiens, UniProt P33261); assay: CYP (cytochrome P450)-suppressing effect, BD GENTEST kit; format: in vitro ADME
T3 construct: purchased BD GENTEST 459400
Protocol: (§1) To evaluate the CYP (cytochrome P450)-suppressing activity of the compounds prepared in the examples of the invention, the following experiment was performed.
(§2) The analysis of CYP1A2, 2C19, and 3A4 suppressing activity was performed by using a BD GENTEST (459100, 459400, and 459500) kit, and the analysis of CYP 2C9- and 2D6-suppressing activity was performed by using an Invitrogen (P2861 and P2862) kit.
(§3) When the BD GENTEST kit was used, the compounds of the present invention were diluted in acetonitrile at the final concentration of 50×. The NADPH-Cofactor mix was prepared by diluting the Cofactor, G6PDH, and control protein provided by the kit in DW according to the instructed concentration. 4 μL of the compound of the example (50×) was mixed with 96 μL of NADPH-Cofactor mix in a 96-well plate, followed by pre-incubation in a 37° C. incubator for 10 minutes.
(§4) The enzyme/substrate mixture was diluted in the buffer (0.5 M potassium phosphate, pH 7.4) provided by the kit according to the instructed concentration. Each CYP450 enzyme substrate was diluted in DW at a desired concentration respectively according to the corresponding types of CYP450. 100 μL of the enzyme/substrate mixture was loaded in the plate when the pre-incubation had been completed, followed by reaction in a 37° C. incubator for 15 minutes (1A2) and 30 minutes (3A4 and 2C19). Upon completion of the reaction, the mixture was transferred to a white plate, and the fluorescent wavelength was measured with a microplate reader (1A2, 2C19 excitation 410 nm, emission 460 nm; 3A4, excitation 409 nm, emission 530 nm).
(§5) The test results were calculated by the following formula:
(§6) (1−(fluorescence value of the test material/fluorescence value of the vehicle))×100%.

[5] = target: T4, CYP 3A4 (Homo sapiens, UniProt P08684); assay: as above; format: in vitro ADME
T4 construct: purchased BD GENTEST 459500
Protocol: as §1, §2, §3, §4, §5, §6

[6] = target: T5, CYP1A2 (Homo sapiens, UniProt P05177); assay: as above; format: in vitro ADME
T5 construct: purchased BD GENTEST 459100
T5 sequence (P05177 1-516): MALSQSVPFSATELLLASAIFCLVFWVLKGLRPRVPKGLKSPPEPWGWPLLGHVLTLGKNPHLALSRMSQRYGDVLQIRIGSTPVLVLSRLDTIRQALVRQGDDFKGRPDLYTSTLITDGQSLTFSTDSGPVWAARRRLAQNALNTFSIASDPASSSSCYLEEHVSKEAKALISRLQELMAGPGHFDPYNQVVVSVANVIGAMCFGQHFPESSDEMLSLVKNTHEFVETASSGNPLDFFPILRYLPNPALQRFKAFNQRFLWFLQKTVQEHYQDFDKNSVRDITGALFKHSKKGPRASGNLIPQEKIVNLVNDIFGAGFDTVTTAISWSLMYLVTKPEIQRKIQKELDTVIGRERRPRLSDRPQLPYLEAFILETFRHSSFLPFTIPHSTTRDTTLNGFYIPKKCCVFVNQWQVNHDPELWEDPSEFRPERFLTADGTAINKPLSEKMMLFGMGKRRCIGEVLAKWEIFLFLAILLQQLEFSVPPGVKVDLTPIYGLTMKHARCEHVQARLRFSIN
Protocol: as §1, §2, §3, §4, §5, §6

[7] = target: T6, CYP 2C9 (Homo sapiens, UniProt P11712); assay: CYP (cytochrome P450)-suppressing effect, Invitrogen Vivid kit; format: in vitro ADME
T6 construct: purchased Invitrogen P2861
Protocol: as §1, §2
(§7) When the Invitrogen kit was used, the compounds of the present invention were diluted in Vivid CYP450 reaction buffer (1×) at the final concentration of 2.5×. The P450 BACULOSOMES sample and Regeneration system (100×) were diluted in Vivid CYP450 reaction buffer (1×) at different proper concentrations. 80 μL of the compound of the invention (2.5×) and […] of the diluted P450 BACULOSOMES sample mixture were mixed in a U-bottom 96-well plate, followed by pre-incubation for 10 minutes. Vivid CYP450 Substrate and NADP+ (100×) were diluted in Vivid CYP450 reaction buffer (1×) at a desired concentration, respectively, according to their corresponding types of CYP450 and substrates. 20 μL of Substrate-NADP+ mix was loaded in the plate when the pre-incubation had been completed, followed by reaction for 1 hour. Upon completion of the reaction, the reaction mixture was transferred in a white plate and fluorescent wavelength was measured with a microplate reader (2C9 excitation 415 nm, emission 460 nm, 2D6 excitation 400 nm, emission 502 nm).
as §5, §6

[8] = target: T7, CYP 2D6 (Homo sapiens, UniProt P10635); assay: as above; format: in vitro ADME
T7 construct: purchased Invitrogen P2862
Protocol: as §1, §2, §7, §5, §6

[9] = test system: CYP isozymes 1A2, 2C9, 2C19, and 2D6; assay: CYP suppression compared with comparative examples (Table 3); format: in vitro ADME; conditions: result in words
Protocol: as §1, §2, §7, §3, §4, §5, §6

T6 sequence (P11712 whole entry): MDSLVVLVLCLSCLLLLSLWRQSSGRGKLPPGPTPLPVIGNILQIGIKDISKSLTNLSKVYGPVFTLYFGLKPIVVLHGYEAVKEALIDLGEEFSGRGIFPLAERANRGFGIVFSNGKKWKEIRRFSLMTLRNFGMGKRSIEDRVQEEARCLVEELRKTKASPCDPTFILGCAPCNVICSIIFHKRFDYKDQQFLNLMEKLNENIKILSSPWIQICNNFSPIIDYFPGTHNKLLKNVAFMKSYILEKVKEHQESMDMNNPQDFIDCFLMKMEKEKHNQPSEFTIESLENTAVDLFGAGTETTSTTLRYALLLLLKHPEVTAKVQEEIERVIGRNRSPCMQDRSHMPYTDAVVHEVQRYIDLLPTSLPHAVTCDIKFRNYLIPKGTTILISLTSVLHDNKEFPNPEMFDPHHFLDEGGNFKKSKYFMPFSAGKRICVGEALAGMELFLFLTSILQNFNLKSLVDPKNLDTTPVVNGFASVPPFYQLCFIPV
T3 sequence (P33261 whole entry): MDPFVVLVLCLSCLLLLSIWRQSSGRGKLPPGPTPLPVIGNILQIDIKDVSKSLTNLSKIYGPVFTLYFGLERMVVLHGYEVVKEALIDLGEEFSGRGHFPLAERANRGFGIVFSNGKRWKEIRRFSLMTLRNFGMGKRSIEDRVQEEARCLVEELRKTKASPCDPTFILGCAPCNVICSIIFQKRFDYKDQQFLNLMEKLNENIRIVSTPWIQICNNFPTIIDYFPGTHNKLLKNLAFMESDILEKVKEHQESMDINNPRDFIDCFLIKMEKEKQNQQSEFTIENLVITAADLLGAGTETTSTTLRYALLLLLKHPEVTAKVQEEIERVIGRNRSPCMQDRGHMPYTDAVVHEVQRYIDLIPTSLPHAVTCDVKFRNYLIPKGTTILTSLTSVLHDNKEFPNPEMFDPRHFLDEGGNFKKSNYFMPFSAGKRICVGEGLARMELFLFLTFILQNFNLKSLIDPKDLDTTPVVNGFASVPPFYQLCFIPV
T4 sequence (P08684 whole entry): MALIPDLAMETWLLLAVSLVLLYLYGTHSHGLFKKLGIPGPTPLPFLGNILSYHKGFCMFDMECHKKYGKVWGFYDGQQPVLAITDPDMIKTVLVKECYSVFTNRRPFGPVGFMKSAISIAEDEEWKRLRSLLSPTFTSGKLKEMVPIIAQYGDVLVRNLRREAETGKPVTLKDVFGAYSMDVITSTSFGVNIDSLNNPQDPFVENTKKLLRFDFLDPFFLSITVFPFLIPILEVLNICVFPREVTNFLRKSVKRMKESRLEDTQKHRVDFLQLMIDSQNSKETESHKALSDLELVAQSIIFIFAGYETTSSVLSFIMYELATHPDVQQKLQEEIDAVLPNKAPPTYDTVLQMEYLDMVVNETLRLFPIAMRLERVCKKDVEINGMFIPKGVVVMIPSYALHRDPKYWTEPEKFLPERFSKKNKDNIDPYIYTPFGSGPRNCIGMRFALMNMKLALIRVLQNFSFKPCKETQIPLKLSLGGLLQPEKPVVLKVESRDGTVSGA
T2 sequence (Q12809 whole entry): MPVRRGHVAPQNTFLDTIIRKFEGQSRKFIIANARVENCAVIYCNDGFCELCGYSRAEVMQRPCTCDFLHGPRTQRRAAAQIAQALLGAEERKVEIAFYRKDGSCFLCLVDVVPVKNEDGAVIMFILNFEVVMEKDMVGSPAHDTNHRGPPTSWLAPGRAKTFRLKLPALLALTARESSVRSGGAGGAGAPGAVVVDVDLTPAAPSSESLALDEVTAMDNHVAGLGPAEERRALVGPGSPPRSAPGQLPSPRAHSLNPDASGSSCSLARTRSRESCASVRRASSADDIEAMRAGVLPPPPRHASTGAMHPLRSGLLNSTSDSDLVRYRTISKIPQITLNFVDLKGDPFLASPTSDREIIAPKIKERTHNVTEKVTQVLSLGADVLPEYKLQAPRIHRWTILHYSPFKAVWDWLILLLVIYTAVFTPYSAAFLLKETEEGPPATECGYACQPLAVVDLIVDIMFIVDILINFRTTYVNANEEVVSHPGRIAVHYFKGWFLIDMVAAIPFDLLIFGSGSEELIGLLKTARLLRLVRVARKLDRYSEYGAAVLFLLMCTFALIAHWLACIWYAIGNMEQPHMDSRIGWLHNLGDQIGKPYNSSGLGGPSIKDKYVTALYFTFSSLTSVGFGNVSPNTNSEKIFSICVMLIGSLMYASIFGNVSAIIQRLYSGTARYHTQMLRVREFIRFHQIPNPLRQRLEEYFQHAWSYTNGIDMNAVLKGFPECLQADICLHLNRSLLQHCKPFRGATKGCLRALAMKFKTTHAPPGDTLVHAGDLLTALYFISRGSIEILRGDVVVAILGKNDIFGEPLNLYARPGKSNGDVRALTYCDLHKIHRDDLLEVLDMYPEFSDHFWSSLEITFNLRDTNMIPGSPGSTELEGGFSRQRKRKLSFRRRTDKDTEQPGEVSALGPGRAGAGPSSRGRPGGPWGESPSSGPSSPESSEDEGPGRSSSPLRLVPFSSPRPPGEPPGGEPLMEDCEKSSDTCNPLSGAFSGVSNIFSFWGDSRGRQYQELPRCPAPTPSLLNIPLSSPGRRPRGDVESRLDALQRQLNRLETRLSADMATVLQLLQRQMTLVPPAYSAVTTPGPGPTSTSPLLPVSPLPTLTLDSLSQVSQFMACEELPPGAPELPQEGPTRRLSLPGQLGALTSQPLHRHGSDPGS
T7 sequence (P10635 whole entry): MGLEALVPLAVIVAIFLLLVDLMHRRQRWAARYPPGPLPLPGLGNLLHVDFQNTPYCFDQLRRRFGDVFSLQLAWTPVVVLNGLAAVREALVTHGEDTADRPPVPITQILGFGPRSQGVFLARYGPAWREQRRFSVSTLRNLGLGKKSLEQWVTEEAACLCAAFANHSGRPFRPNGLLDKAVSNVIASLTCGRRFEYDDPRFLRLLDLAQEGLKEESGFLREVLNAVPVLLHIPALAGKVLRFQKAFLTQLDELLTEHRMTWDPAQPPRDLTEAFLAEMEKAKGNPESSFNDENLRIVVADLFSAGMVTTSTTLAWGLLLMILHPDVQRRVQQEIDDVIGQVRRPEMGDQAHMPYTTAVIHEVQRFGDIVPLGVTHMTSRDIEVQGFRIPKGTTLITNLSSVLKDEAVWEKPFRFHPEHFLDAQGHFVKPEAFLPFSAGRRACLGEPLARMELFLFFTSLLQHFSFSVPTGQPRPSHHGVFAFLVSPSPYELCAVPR

SMILES: C[C@H](NC(=O)c1ccc2c(c1)CCCN2Cc1ccccc1-c1ccc(C(=O)O)cc1)c1ccc(C#N)cc1 [Example 157, (S)-2′-((6-((1-(4-cyanophenyl)ethyl)carbamoyl)-3,4-dihydroquinoline-1(2H)-yl)methyl)-[1,1′-biphenyl]-4-carboxylic acid]
Binding assay (1 μLM) [1]: ++
pIC50 [2]: 4.37

SMILES: Cc1c(C)n(Cc2ccc(-c3ccccc3C(=O)O)cc2)c2ccc(C(=O)N[C@@H](C)c3ccc([N+](=O)[O-])cc3)cc12 [SR1664]
fat generation in bone cells [3]: does not induce problems such as fat generation in bone cells

SMILES: Cc1ccc([C@H](C)NC(=O)c2ccc3c(c2)CCCN3Cc2ccc(-c3ccccc3C(=O)[O-])cc2)cc1F.[Na+] [Example 56, sodium (S)-4′-((6-((1-(3-fluoro-4-methylphenyl)ethyl)carbamoyl)-3,4-dihydroquinoline-1(2H)-yl)methyl)-[1,1′-biphenyl]-2-carboxylate]
Binding assay (1 μLM) [1]: ++++
CYP(10 μL, %) 2C19 [4]: 85.71%
CYP(10 μL, %) 3A4 [5]: 54.62%
CYP(10 μL, %) 1A2 [6]: 100.73%
CYP(10 μL, %) 2C9 [7]: 55.36%
CYP(10 μL, %) 2D6 [8]: 94.15%
pIC50 [2]: 4.14
suppression of CYP isozymes 1A2, 2C9, 2C19, and 2D6 compared with SR1664 and SR1824 [9]: less than the compounds of the comparative examples; also recorded: less strongly than the compounds of the Comparative Examples

SMILES: C[C@H](NC(=O)c1ccc2c(c1)CCCN2Cc1ccccc1-c1ccc(C(=O)O)cc1)c1ccc2ccccc2c1 [Example 156, (S)-2′-((6-((1-(naphthalene-2-yl)ethyl)carbamoyl)-3,4-dihydroquinoline-1(2H)-yl)methyl)-[1,1′-biphenyl]-4-carboxylic acid]
Binding assay (1 μLM) [1]: +
pIC50 [2]: 4.26

SMILES: C[C@H](NC(=O)c1ccc2c(c1)CCCN2Cc1ccc(-c2ccccc2C(=O)[O-])cc1)c1ccc(C#N)cc1.[Na+] [Example 57, sodium (S)-4′-((6-((1-(4-cyanophenyl)ethyl)carbamoyl)-3,4-dihydroquinoline-1(2H)-yl)methyl)-[1,1′-biphenyl]-2-carboxylate]
Binding assay (1 μLM) [1]: +++
CYP(10 μL, %) 2C19 [4]: 75.69%
CYP(10 μL, %) 3A4 [5]: 59.17%
CYP(10 μL, %) 1A2 [6]: 100.32%
CYP(10 μL, %) 2C9 [7]: 58.87%
CYP(10 μL, %) 2D6 [8]: 82.59%
suppression of CYP isozymes 1A2, 2C9, 2C19, and 2D6 compared with SR1664 and SR1824 [9]: less than the compounds of the comparative examples; also recorded: less strongly than the compounds of the Comparative Examples

More lines, main results first:

Binding assay (1 μLM) [1]: +
SMILES: C[C@H](NC(=O)c1ccc2c(c1)CCCN2Cc1ccccc1-c1ccc(C(=O)O)cc1)c1ccc([N+](=O)[O-])cc1 [Example 155, (S)-2′-((6-((1-(4-nitrophenyl)ethyl)carbamoyl)-3,4-dihydroquinoline-1(2H)-yl)methyl)-[1,1′-biphenyl]-4-carboxylic acid]
pIC50 [2]: 4.13

Binding assay (1 μLM) [1]: +++
CYP(10 μL, %) 2C19 [4]: 53.50%
CYP(10 μL, %) 3A4 [5]: 60.95%
CYP(10 μL, %) 1A2 [6]: 94.00%
CYP(10 μL, %) 2C9 [7]: 63.24%
CYP(10 μL, %) 2D6 [8]: 80.63%
SMILES: C[C@H](NC(=O)c1ccc2c(c1)CCCN2Cc1cc(-c2ccccc2C(N)=O)ccc1F)c1ccc([N+](=O)[O-])cc1 [Example 139, (S)-1-((2′-carbamoyl-4-fluoro-[1,1′-biphenyl]-3-yl)methyl)-N-(1-(4-nitrophenyl)ethyl)-1,2,3,4-tetrahydroquinoline-6-carboxamide]
suppression of CYP isozymes 1A2, 2C9, 2C19, and 2D6 compared with SR1664 and SR1824 [9]: less than the compounds of the comparative examples; also recorded: less strongly than the compounds of the Comparative Examples
